According to patent publication US8148387B2, “AKT and P70 S6 kinase inhibitors” (Eli Lilly and Company, priority 2008, dated 2012):
Where “and” joins values, the source holds several entries; their conditions need not be identical. Equal entries are not always repeated.

Key:
BT474 = assay: Cell Proliferation Assay (CellTiter-Glo), BT474; type: cell-based; conditions: Homo sapiens, BT-474; BT474, 72 hr
Protocol: (§1) The proliferation assay uses the CellTiter-Glo Luminescent Cell Viability Assay System (commercially available from Promega) to determine the cell number of viable cells in culture based on quantitation of the ATP present, which signals the presence of metabolically active cells.
(§2) The cells are plated in 96-well plate at 2000 cells/well in volume of 50 μL medium (DMEM, 10% FBS, 25 mM HEPES, 1.0 mM Sodium Pyruvate, and 0.1 mM Non Essential Amino Acids) except column 1 with medium only as blank control. The plates are incubated overnight at 37° C. and 5% CO2. On the next day, compound stocks are prepared at 40 mM in DMSO (500×) and serially diluted in DMSO in a 96-well round bottom polypropylene plate. Compounds are assayed at 10 concentrations in duplicate, 4 compounds per plate.
(§3) 4 μL of the serial DMSO dilutions are transferred to a 96 deep-well plate and 1 mL complete culture medium is added to create 2× stock for dosing. 50 μL of each 2× dosing stock is gently transferred to the corresponding well of the cell plate resulting in a 0.2% DMSO concentration and a 100 μL final volume. […] medium are added to the Control columns (Column 12) and background columns (Column 1). Cells are incubated with compound for at 37° C., 5% CO2 for 72 hr. […]

A2780 [1] = assay: Cell Proliferation Assay (CellTiter-Glo), A2780; type: cell-based; conditions: Homo sapiens; A2780, 72 hr
Protocol: as §1, §2, §3

786-O = assay: Cell Proliferation Assay (CellTiter-Glo), 786-O; type: cell-based; conditions: Homo sapiens, 786-0, 72 hr
Protocol: as §1, §2, §3

H69 = assay: Cell Proliferation Assay (CellTiter-Glo), H69; type: cell-based; conditions: Homo sapiens, NCI-H69; H69, 72 hr
Protocol: as §1, §2, §3

A2780 [2] = assay: Combination studies, fixed ratio method, cell proliferation, A2780; type: cell-based
Source text: (§4) The combination studies use the fixed ratio method, where the compound of the present invention and the other therapeutic agent are present in fixed ratios of concentrations corresponding to the IC50 equivalents of single agents. The readout for the combination studies is cell proliferation in respective cell lines using Cell Titer Glo reagents. Controls are processed similarly but without the compound of the present invention or the other therapeutic agent. Analysis of the data is done according to the method described in Zhao et. al., Clinical Cancer Research, 10, 7994-8004 (2004) utilizing a web based tool. A combination index is calculated for a range of cell proliferation inhibition activity levels according to the equation below. Combination Index at activity level x=[Concentration of other therapeutic agent in the combination at the activity level x/ICx of the other therapeutic agent]+[Concentration of the compound of the present invention in the combination at the activity level x/ICx of the compound of the present invention] For clarity, Combination index values at 50% inhibition are summarized below.

ACHN = assay: Combination studies, fixed ratio method, cell proliferation, ACHN; type: cell-based; conditions: combination with Rapamycin
Source text: as §4

69AR = assay: Cell Proliferation Assay (CellTiter-Glo), 69AR; type: cell-based; conditions: 72 hr
Protocol: as §1, §2, §3

OPM-2 = assay: Cell Proliferation Assay (CellTiter-Glo), OPM-2; type: cell-based; conditions: Homo sapiens; OPM-2, 72 hr
Protocol: as §1, §2, §3

CAKI-1 = assay: Combination studies, fixed ratio method, cell proliferation, CAKI-1; type: cell-based; conditions: combination with Rapamycin
Source text: as §4

Calu6 = assay: Combination studies, fixed ratio method, cell proliferation, Calu6; type: cell-based
Source text: as §4

NCIH460 = assay: Combination studies, fixed ratio method, cell proliferation, NCIH460; type: cell-based
Source text: as §4

H1155 [3] = assay: Combination studies, fixed ratio method, cell proliferation, H1155; type: cell-based
Source text: as §4

786-0 = assay: Combination studies, fixed ratio method, cell proliferation, 786-0; type: cell-based; conditions: combination with Rapamycin
Source text: as §4

U87MG = assay: Cell Proliferation Assay (CellTiter-Glo), U87MG; type: cell-based; conditions: Homo sapiens, U-87 MG, 72 hr
Protocol: as §1, §2, §3

H1155 [4] = assay: Cell Proliferation Assay (CellTiter-Glo), H1155; type: cell-based; conditions: Homo sapiens, NCI-H1155; H1155, 72 hr
Protocol: as §1, §2, §3

PC3 = assay: Cell Proliferation Assay (CellTiter-Glo), PC3; type: cell-based; conditions: Homo sapiens, PC-3; PC3, 72 hr
Protocol: as §1, §2, §3

HCT116 [5] = assay: Combination studies, fixed ratio method, cell proliferation, HCT116; type: cell-based
Source text: as §4

HCT116 [6] = assay: Cell Proliferation Assay (CellTiter-Glo), HCT116; type: cell-based; conditions: Homo sapiens, HCT-116; HCT116, 72 hr
Protocol: as §1, §2, §3

human HERG K+ channel = target: T1, human HERG K+ channel (Homo sapiens, UniProt Q12809); assay: HERG Assay, [3H]astemizole radioligand binding; conditions: transfected HEK-293 cell membranes, 2 nM [3H]astemizole
T1 construct: expressed in transfected cells; host or cells: HEK-293
T1 sequence (Q12809 whole entry): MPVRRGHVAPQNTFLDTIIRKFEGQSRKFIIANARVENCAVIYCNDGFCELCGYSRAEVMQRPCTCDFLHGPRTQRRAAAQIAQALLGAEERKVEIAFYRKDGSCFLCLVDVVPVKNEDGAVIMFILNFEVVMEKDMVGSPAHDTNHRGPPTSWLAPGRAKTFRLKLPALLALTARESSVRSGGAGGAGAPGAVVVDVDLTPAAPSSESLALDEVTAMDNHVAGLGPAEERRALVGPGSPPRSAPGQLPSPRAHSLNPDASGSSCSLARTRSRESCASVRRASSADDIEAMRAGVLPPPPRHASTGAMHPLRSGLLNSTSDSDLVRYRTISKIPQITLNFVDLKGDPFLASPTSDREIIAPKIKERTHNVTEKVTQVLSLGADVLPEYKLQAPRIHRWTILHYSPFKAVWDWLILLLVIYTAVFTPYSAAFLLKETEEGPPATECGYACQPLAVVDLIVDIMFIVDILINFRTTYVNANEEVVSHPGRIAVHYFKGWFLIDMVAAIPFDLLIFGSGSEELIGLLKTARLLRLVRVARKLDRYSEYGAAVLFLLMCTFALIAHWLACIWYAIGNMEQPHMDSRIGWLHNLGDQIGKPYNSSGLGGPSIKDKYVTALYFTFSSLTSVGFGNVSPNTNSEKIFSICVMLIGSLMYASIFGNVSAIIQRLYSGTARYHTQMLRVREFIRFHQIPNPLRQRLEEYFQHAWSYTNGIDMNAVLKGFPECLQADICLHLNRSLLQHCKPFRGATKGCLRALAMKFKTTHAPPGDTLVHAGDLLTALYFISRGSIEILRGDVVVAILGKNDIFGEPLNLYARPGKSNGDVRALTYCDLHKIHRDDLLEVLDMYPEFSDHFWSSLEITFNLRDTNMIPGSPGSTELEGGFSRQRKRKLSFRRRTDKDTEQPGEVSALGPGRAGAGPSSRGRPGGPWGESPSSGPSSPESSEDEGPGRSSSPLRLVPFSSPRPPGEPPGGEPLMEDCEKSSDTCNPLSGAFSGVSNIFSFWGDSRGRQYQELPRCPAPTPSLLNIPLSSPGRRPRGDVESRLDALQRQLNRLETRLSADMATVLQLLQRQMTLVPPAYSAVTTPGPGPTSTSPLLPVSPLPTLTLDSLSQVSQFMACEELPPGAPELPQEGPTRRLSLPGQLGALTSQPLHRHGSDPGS
Protocol: Evaluation of the affinity of compounds for the human HERG K^+ channel in transfected HEK-293 cells is determined in a radioligand binding assay. Cell membrane homogenates (40 μg protein) are incubated for 75 min at 22° C. with 2 nM [^3H]astemizole in the absence or presence of the test compound in a buffer containing 50 mM Tris-HCl (pH 7.4), 10 mM KCl, 1.2 mM MgCl2 and 0.1% Bovine serum albumin (BSA). Nonspecific binding is determined in the presence of 10 μM astemizole. Following incubation, the samples are filtered rapidly under vacuum through glass fiber filters (GF/B, Packard) presoaked with 0.3% PEI and rinsed several times with ice-cold 50 mM Tris-HCl using a 96-sample cell harvester (Unifilter, Packard). The filters are dried then counted for radioactivity in a scintillation counter (Topcount, Packard) using a scintillation cocktail (Microscint 0, Packard). The results are expressed as a percent inhibition of the control radioligand specific binding. The standard reference compound is astemizole, which is tested in each experiment at several concentrations to obtain a competition curve from which its IC50 is calculated. (Finalayson et al, [^3H]dofetilide binding in SHSYSY and HEK293 cells expressing a HERG-like K^+ channels, Eur. J. Pharmacol., 412: 203 (2001)).

CN(C)CCn1cc(-c2ccc(F)c(C(F)(F)F)c2)nc1C1CCN(c2ncnc3c2CC(=O)N3)CC1 [Example 45, 4-{4-[1-(2-Dimethylamino-ethyl)-4-(4-fluoro-3-trifluoromethyl-phenyl)-1H-imidazol-2-yl]piperidin-1-yl}-5,7-dihydro-pyrrolo[2,3-d]-pyrimidin-6-one]
IC50 (BT474): 7.9 µM
IC50 (A2780 [1]): 5.9 µM
IC50 (786-O): 3.4 µM
IC50 (H69): 6.3 µM
COMBINATION INDEX AT 50% INHIBITION (A2780 [2]; combination with Cisplatin): 1.04 and 0.64
COMBINATION INDEX AT 50% INHIBITION (A2780 [2]; combination with Doxorubicin•HCl): 0.65 and 0.96
COMBINATION INDEX AT 50% INHIBITION (ACHN): 0.12
IC50 (69AR): 9.4 µM
IC50 (OPM-2): 2.3 µM
COMBINATION INDEX AT 50% INHIBITION (CAKI-1): 0.33
COMBINATION INDEX AT 50% INHIBITION (Calu6; combination with Cisplatin): 0.57
COMBINATION INDEX AT 50% INHIBITION (Calu6; combination with Docetaxel): 0.94
COMBINATION INDEX AT 50% INHIBITION (Calu6; combination with Erlotinib): 0.10
COMBINATION INDEX AT 50% INHIBITION (Calu6; combination with Gemcitabine): 1.13
COMBINATION INDEX AT 50% INHIBITION (Calu6; combination with Tasisulam): 1.19
COMBINATION INDEX AT 50% INHIBITION (NCIH460; combination with Cisplatin): 0.56
COMBINATION INDEX AT 50% INHIBITION (NCIH460; combination with Docetaxel): 0.67
COMBINATION INDEX AT 50% INHIBITION (NCIH460; combination with Erlotinib): 0.38
COMBINATION INDEX AT 50% INHIBITION (NCIH460; combination with Gemcitabine): 0.86
COMBINATION INDEX AT 50% INHIBITION (NCIH460; combination with Pemetrexed): 0.97
COMBINATION INDEX AT 50% INHIBITION (H1155 [3]; combination with Cisplatin): 0.58
COMBINATION INDEX AT 50% INHIBITION (H1155 [3]; combination with Erlotinib): 0.43
COMBINATION INDEX AT 50% INHIBITION (H1155 [3]; combination with Gemcitabine): 0.87
COMBINATION INDEX AT 50% INHIBITION (786-0): 0.41
IC50 (U87MG): > 10 µM
IC50 (H1155 [4]): 4.9 µM
IC50 (PC3): 6.2 µM
COMBINATION INDEX AT 50% INHIBITION (HCT116 [5]; combination with Cetuximab): 2.02
COMBINATION INDEX AT 50% INHIBITION (HCT116 [5]; combination with Irinotecan): 0.82
IC50 (HCT116 [6]): 7.5 µM

O=C1Cc2c(ncnc2N2CCC(c3nc(-c4ccc(F)c(F)c4)cn3CCN3CCCC3)CC2)N1 [Example 37, 4-{4-[4-(3,4-Difluoro-phenyl)-1-(2-pyrrolidin-1-yl-ethyl)-1H-imidazol-2-yl]-piperidin-1-yl}-5,7-dihydro-pyrrolo[2,3-d]pyrimidin-6-one]
IC50 (human HERG K+ channel): 13.9 µM
